Patent US20240352145A1, “EFFICACY OF ANTI-TROP-2-SN-38 ANTIBODY DRUG CONJUGATES FOR THERAPY OF TUMORS RELAPSED/REFRACTORY TO CHECKPOINT INHIBITORS” (Immunomedics, Inc., priority 2016, published 2024)
pIC50: −log10 of the molar value.

Key:
p21^Waf1/Cip1 and p53 [1] = assay: Signaling events (p21Waf1/Cip1, p53) in BxPC-3; format: cell-based, human
Description: (§3) Our initial studies examined the expression of 2 proteins involved in early signaling events (p21^Waf1/Cip1 and p53) and 1 late apoptotic event [cleavage of poly-ADP-ribose polymerase (PARP)] in vitro (not shown).

Capan-1 [2] = assay: In vitro cytotoxicity, Capan-1
Description: (§4) Cell lines, antibodies, and chemotherapeutics—All human cancer cell lines used in this study were purchased from the American Type Culture Collection.

SK-MES-1 = assay: In vitro cytotoxicity, SK-MES-1
Description: as §4

NCI-N87 = assay: Cytotoxicity (MTS), Example 6, NCI-N87; format: cell-based, human; details: NCI-N87, 96 h
Procedure: (§1) One day prior to adding the ADCs, cells were harvested from tissue culture and plated into 96-well plates. […] Plates were incubated at 37° C. for 96 h. […] Growth inhibition was measured as a percent of growth relative to untreated cells using Microsoft Excel and Prism software (non-linear regression to generate sigmoidal dose response curves which yield IC50-values.

PC-3 = assay: In vitro cytotoxicity, PC-3
Description: as §4

MDA-MB-231 = assay: SN-38 sensitivity (MTS), MDA-MB-231; format: cell-based, human; details: MDA-MB-231 (TNBC), 96 h
Procedure: (§2) In vitro cytotoxicity testing—Sensitivity to SN-38 was determined using the 3-(4,5-dimethylthiazol-2-yl)-5-(3-carboxymethoxyphenyl)-2-(4-sulfophenyl)-2H-tetrazolium dye reduction assay (MTS dye reduction assay; Promega, Madison, WI). Briefly, cells were plated into 96-well clear, flat-bottomed plates as described above. SN-38 dissolved in DMSO was diluted with media to a final concentration of 0.004 to 250 nM. […] Growth inhibition was measured as a percent of growth relative to untreated cells. Dose-response curves were generated from the mean of triplicate determinations, and IC50-values were calculated using Prism GraphPad Software.

BxPC-3 [3] = assay: In vitro cytotoxicity, BxPC-3
Description: as §4

Calu-3 = assay: In vitro cytotoxicity, Calu-3
Description: as §4

HCC1806 = assay: SN-38 sensitivity (MTS), HCC1806; format: cell-based, human; details: HCC1806 (TNBC), 96 h
Procedure: as §2

Capan-1 [4] = assay: Cytotoxicity (MTS), Example 6, Capan-1; format: cell-based, human; details: Capan-1, 96 h
Procedure: as §1

MCF-7 = assay: SN-38 sensitivity (MTS), MCF-7; format: cell-based, human; details: MCF-7 (ER+), 96 h
Procedure: as §2

COLO 205 = assay: In vitro cytotoxicity, COLO 205
Description: as §4

BxPC-3 [5] = assay: Cytotoxicity (MTS), Example 6, BxPC-3; format: cell-based, human; details: BxPC-3, 96 h
Procedure: as §1

p21^Waf1/Cip1 and p53 [6] = assay: Signaling events (p21Waf1/Cip1, p53) in Calu-3; format: cell-based, human
Description: as §3

PARP = assay: Immunoblotting, apoptosis signaling, NCI-N87 and BxPC-3; format: cell-based, human; details: evident at 24 h, increased at 48 h
Procedure: Immunoblotting—Cells (2×10^6) were plated in 6-well plates overnight. […] Parental hRS7 was used as a control for the ADC. Cells were lysed in buffer containing 10 mM Tris, pH 7.4, 150 mM NaCl, protease inhibitors and phosphatase inhibitors (2 mM […], 10 mM NaF). A total of 20 μg protein was resolved in a 4-20% SDS polyacrylamide gel, transferred onto a nitrocellulose membrane and blocked by 5% non-fat milk in 1×TBS-T (Tris-buffered saline, 0.1% Tween-20) for 1 h at room temperature. Membranes were probed overnight at 4° C. with primary antibodies followed by 1-h incubation with antirabbit secondary antibody (1:2500) at room temperature. Signal detection was done using a chemiluminescence kit (Supersignal West Dura, Thermo Scientific; Rockford, IL) with the membranes visualized on a Kodak Image Station […]. Primary antibodies p21Waf1/Cip1 (Cat. No. 2947), Caspase-3 (Cat. No. 9665), Caspase-7 (Cat. No. 9492), Caspase-9 (Cat. No. 9502), PARP (Cat. No. 9542), 3-actin (Cat. No. 4967), pJNK1/2 (Cat. No. 4668), JNK (Cat. No. 9258), and goat anti-rabbit-HRP secondary antibody (Cat. No. 7074) were obtained from Cell Signal Technology (Danvers, MA).

MDA-MB-468 [7] = assay: Cytotoxicity (MTS), Example 7, MDA-MB-468; format: cell-based, human; details: MDA-MB-468, 96 h
Procedure: as §1, with “ADC,” for “ADCs,”, “plates at 2000 cells per well.” for “plates.”, “IC50-values).” for “IC50-values.”

HCC38 = assay: SN-38 sensitivity (MTS), HCC38; format: cell-based, human; details: HCC38 (TNBC), 96 h
Procedure: as §2

p21^WAF1/Cip1 = assay: Immunoblotting, apoptotic pathway, MDA-MB-468; format: cell-based, human; details: MDA-MB-468, by 48 h
Procedure: Immunoblotting—Cells (2×10^6) were plated in 6-well plates overnight. […] Parental hRS7 was used as a control for the ADC.

MDA-MB-468 [8] = assay: SN-38 sensitivity (MTS), MDA-MB-468; format: cell-based, human; details: MDA-MB-468 (TNBC), 96 h
Procedure: as §2

SK-BR-3 = assay: SN-38 sensitivity (MTS), SK-BR-3; format: cell-based, human; details: SK-BR-3 (HER2+), 96 h
Procedure: as §2

BxPC-3 [9] = assay: Cytotoxicity (MTS), Example 7, BxPC-3; format: cell-based, human; details: BxPC-3, 96 h
Procedure: as §1, with “ADC,” for “ADCs,”, “plates at 2000 cells per well.” for “plates.”, “IC50-values).” for “IC50-values.”

CCc1c2c(nc3ccc(O)cc13)-c1cc3c(c(=O)n1C2)COC(=O)[C@]3(O)CC [SN-38, 7-ethyl-10-hydroxycamptothecin]
exposure time at which p53 upregulation is evident (p21^Waf1/Cip1 and p53 [1]): 48 h | increase in p21Waf1/Cip1 expression (p21^Waf1/Cip1 and p53 [1]): 20 fold | pIC50 (Capan-1 [2]): 8.46 | pIC50 (SK-MES-1): 8.06 | pIC50 (NCI-N87): 8.37 | pIC50 (PC-3): 8.73 | pIC50 (MDA-MB-231): 8.22 | pIC50 (BxPC-3 [3]): 8.84 | pIC50 (Calu-3): 8.14 | pIC50 (HCC1806): 9.00 | pIC50 (Capan-1 [4]): 9.00 | pIC50 (MCF-7): 7.48 | pIC50 (COLO 205): 8.99 | pIC50 (BxPC-3 [5]): 9.00 | exposure time at which p53 upregulation is evident (p21^Waf1/Cip1 and p53 [6]): 48 h | PARP cleavage (PARP): mediated PARP cleavage | pIC50 (MDA-MB-468 [7]): 9.10 | pIC50 (HCC38): 8.70 | decrease of p21WAF1/Cip1 (p21^WAF1/Cip1): 31% | pIC50 (MDA-MB-468 [8]): 8.70 | pIC50 (SK-BR-3): 8.70 | pIC50 (BxPC-3 [9]): 8.80
